Experimental data from patent US20050208496A1, “Methods of testing for bronchial asthma or chronic obstructive pulmonary disease” (Genox Research, Inc., priority 2002, published 2005).

Test system: respiratory epithelial cells

IL-13: human IL-13 (Peprotech, Inc.) added to the medium at 50 ng/mL to stimulate respiratory epithelial cells
DPP4 (34823_at) expression fold change upon IL-13 stimulation (lot 2, Day 7, AI method): 10 fold | DPYD (38220_at) expression fold change upon IL-13 stimulation (lot 2, Day 7, AI method): 2.1 fold | FADS3 (43394_s_at) expression fold change (lot 2, Day 7, AI method): 9.8 fold | FLJ10261 (43366_at) expression fold change (lot 2, Day 7, AI method): 7.9 fold | FLJ10261 (43963_at) expression fold change (lot 2, Day 7, AI method): 6.2 fold | FLJ14281 (50209_at) expression fold change (lot 2, Day 7, AI method): 2 fold | FLJ22332 (56959_at) expression fold change (lot 2, Day 7, AI method): 3.6 fold | FLJ22693 (53777_at) expression fold change (lot 2, Day 7, AI method): 1.6 fold | G1P3 (1358_s_at) expression, fold change upon IL-13 stimulation (lot 2, Day 7, AI method): 10.9 fold | H11 (56474_at) expression fold change (lot 2, Day 7, AI method): 2.1 fold | HDAC9 (37483_at) expression fold change upon IL-13 stimulation (lot 2, Day 7, AI method): 26.1 fold | HLA-F (37420_i_at) expression, fold change upon IL-13 stimulation (lot 2, Day 7, AI method): 2.8 fold | HLA-F (37421_f_at) expression, fold change upon IL-13 stimulation (lot 2, Day 7, AI method): 2.2 fold | HLA-F (49203_f_at) expression fold change (lot 2, Day 7, AI method): 2.8 fold | HLALS (34427_g_at) expression, fold change upon IL-13 stimulation (lot 2, Day 7, AI method): 2 fold | HS3ST1 (41556_s_at) expression fold change upon IL-13 stimulation (lot 2, Day 7, AI method): 2.5 fold | HSD17B2 (38178_at) expression fold change upon IL-13 stimulation (lot 2, Day 7, AI method): 3.5 fold | HSPA5 (47634_at) expression fold change (lot 2, Day 7, AI method): 2.6 fold | HUMRTVLH3 (34702_f_at) expression, fold change upon IL-13 stimulation (lot 2, Day 7, AI method): 3.1 fold | Human hbc647 mRNA sequence (34759_at) expression, fold change upon IL-13 stimulation (lot 2, Day 7, AI method): 2.9 fold | ICAMt (32640_at) expression fold change upon IL-13 stimulation (lot 2, Day 7, AI method): 4.1 fold | IFI27 (425_at) expression, fold change upon IL-13 stimulation (lot 2, Day 7, AI method): 4.7 fold | IFI27 (48864_at) expression fold change (lot 2, Day 7, AI method): 3.3 fold | IFI30 (39728_at) expression, fold change upon IL-13 stimulation (lot 2, Day 7, AI method): 2.3 fold | IFIT1 (915_at) expression, fold change upon IL-13 stimulation (lot 2, Day 7, AI method): 7.7 fold | IFIT4 (38584_at) expression, fold change upon IL-13 stimulation (lot 2, Day 7, AI method): 3.6 fold | IL13RA2 (1016_s_at) expression fold change upon IL-13 stimulation (lot 2, Day 7, AI method): 36.5 fold | IRF7 (36412_s_at) expression fold change (lot 2, Day 7, AI method): 3.6 fold | IRLB (32961_at) expression fold change (lot 2, Day 7, AI method): 2 fold | ISG15 (1107_s_at) expression, fold change upon IL-13 stimulation (lot 2, Day 7, AI method): 4.3 fold | ISG15 (38432_at) expression, fold change upon IL-13 stimulation (lot 2, Day 7, AI method): 6.9 fold | KIAA0469 (37230_at) expression, fold change upon IL-13 stimulation (lot 2, Day 7, AI method): 3 fold | KIAA0537 (33787_at) expression, fold change upon IL-13 stimulation (lot 2, Day 7, AI method): 4.8 fold | KIAA1199 (36070_at) expression, fold change upon IL-13 stimulation (lot 2, Day 7, AI method): 3.4 fold | KIAA1268 (57050_at) expression fold change (lot 2, Day 7, AI method): 1.7 fold | KIAAI268 (59516_at) expression fold change (lot 2, Day 7, AI method): 5.9 fold | KRT16 (601_s_at) expression fold change (lot 2, Day 7, AI method): 2 fold | LAMP3 (37168_at) expression, fold change upon IL-13 stimulation (lot 2, Day 7, AI method): 3 fold | LOC64116 (40456_at) expression, fold change upon IL-13 stimulation (lot 2, Day 7, AI method): 3 fold | LRPAP1 (36194_at) expression, fold change upon IL-13 stimulation (lot 2, Day 7, AI method): 2.2 fold | MAT2A (32571_at) expression fold change upon IL-13 stimulation (lot 2, Day 7, AI method): 2.9 fold | MDA5 (51920_at) expression fold change (lot 2, Day 7, AI method): 2.8 fold | MED6 (35432_at) expression fold change (lot 2, Day 7, AI method): 2 fold | MET (1609_g_at) expression, fold change upon IL-13 stimulation (lot 2, Day 7, AI method): 3.4 fold | MET (1812_s_at) expression, fold change upon IL-13 stimulation (lot 2, Day 7, AI method): 5.8 fold | MET (35684_at) expression, fold change upon IL-13 stimulation (lot 2, Day 7, AI method): 2.4 fold | MFHAS1 (50388_at) expression fold change (lot 2, Day 7, AI method): 2.4 fold | MICB (35937_at) expression, fold change upon IL-13 stimulation (lot 2, Day 7, AI method): 5.6 fold | MKP-L (38272_at) expression, fold change upon IL-13 stimulation (lot 2, Day 7, AI method): 5.1 fold | MMP7 (668_s_at) expression, fold change upon IL-13 stimulation (lot 2, Day 7, AI method): 2 fold | MP1 (34839_at) expression, fold change upon IL-13 stimulation (lot 2, Day 7, AI method): 2.4 fold | MXI (37014_at) expression fold change (lot 2, Day 7, AI method): 4.2 fold | NCF2 (41038_at) expression fold change (lot 2, Day 7, AI method): 4.2 fold | NFIL3 (37544_at) expression fold change (lot 2, Day 7, AI method): 2.7 fold | NTRK1 (36805_s_at) expression, fold change upon IL-13 stimulation (lot 2, Day 7, AI method): 4.9 fold | OAF (39695_at) expression, fold change upon IL-13 stimulation (lot 2, Day 7, AI method): 11.4 fold | OSF-2 (1451_s_at) expression fold change upon IL-13 stimulation (lot 2, Day 7, AI method): 46.4 fold | PAK2 (1560_g_at) expression, fold change upon IL-13 stimulation (lot 2, Day 7, AI method): 3.8 fold | PITPNB (353_at) expression, fold change upon IL-13 stimulation (lot 2, Day 7, AI method): 2 fold | PITPNB (35017_f_at) expression, fold change upon IL-13 stimulation (lot 2, Day 7, AI method): 2.4 fold | PMCH (32005_at) expression fold change (lot 2, Day 7, AI method): 4.3 fold | PSMB9 (38287_at) expression fold change upon IL-13 stimulation (lot 2, Day 7, AI method): 2.4 fold | PVRL2 (50320_g_at) expression fold change (lot 2, Day 7, AI method): 2.2 fold | RASGRP1 (33291_at) expression fold change (lot 2, Day 7, AI method): 4.2 fold | SECTM1 (41045_at) expression, fold change upon IL-13 stimulation (lot 2, Day 7, AI method): 4.6 fold | SERPINB2 (37185_at) expression fold change (lot 2, Day 7, AI method): 3.4 fold | SERPINB4 (1549_s_at) expression fold change (lot 2, Day 7, AI method): 15 fold | SIAT1 (41352_at) expression fold change upon IL-13 stimulation (lot 2, Day 7, AI method): 2.4 fold | SLC26A4, pendrin (36376_at) expression fold change (lot 2, Day 7, AI method): 58.2 fold | SPHK1 (51923_at) expression fold change (lot 2, Day 7, AI method): 2.5 fold | SSI-1 (41592_at) expression, fold change upon IL-13 stimulation (lot 2, Day 7, AI method): 11.3 fold | STAT1 (32859_at) expression fold change (lot 2, Day 7, AI method): 2.6 fold | STAT1 (33339_g_at) expression fold change (lot 2, Day 7, AI method): 2.5 fold | TGFB2 (1262_s_at) expression fold change upon IL-13 stimulation (lot 2, Day 7, AI method): 5.9 fold | TGM2 (38404_at) expression fold change upon IL-13 stimulation (lot 2, Day 7, AI method): 6 fold | TSPAN-3 (38612_at) expression, fold change upon IL-13 stimulation (lot 2, Day 7, AI method): 2.7 fold | TXNRD1 (39425_at) expression fold change upon IL-13 stimulation (lot 2, Day 7, AI method): 3.3 fold | UFD1L (811_at) expression, fold change upon IL-13 stimulation (lot 2, Day 7, AI method): 3.2 fold | W06879 (57696_at) expression fold change (lot 2, Day 7, AI method): 2 fold | ZNF263 (33288_i_at) expression fold change (lot 2, Day 7, AI method): 2 fold | cig5 (38549_at) expression, fold change upon IL-13 stimulation (lot 2, Day 7, AI method): 7.4 fold | AA045020 (44676_at) expression change (lot 2 Day 7 AI): −7.1 | AA053401 (56234_r_at) expression change (lot 2 Day 7 AI): −3.2 | AA059445 46293_at expression change (lot 2 Day 7 AI): −11.7 | AA059458 (65626_at) expression change (lot 2 Day 7 AI): −4.6 | AA079839 (69289_at) expression change (lot 2 Day 7 AI): −2.3 | AA151265 (60939_i_at) expression change (lot 2 Day 7 AI): −2.7 | AA151265 (60940_r_at) expression change (lot 2 Day 7 AI): −11.6 | AA160156 (47578_at) expression change (lot 2 Day 7 AI): −3.1 | AA203423 (65699_at) expression change (lot 2 Day 7 AI): −4.7 | AA369887 (87539_i_at) expression change (lot 2 Day 7 AI): −2.6 | AA398155 (48999_at) expression change (lot 2 Day 7 AI): −3.8 | AA400080 (57282_at) expression change (lot 2 Day 7 AI): −4.1 | AA422178 (53747_at) expression change (lot 2 Day 7 AI): −32.2 | AA428312 (83988_at) expression change (lot 2 Day 7 AI): −5.4 | AA442232 (59109_at) expression change (lot 2 Day 7 AI): −2.2 | AA456099 (59567_at) expression change (lot 2 Day 7 AI): −3.5 | AA772055 46104_at expression change (lot 2 Day 7 AI): −15.1 | AA779895 59136_at expression change (lot 2 Day 7 AI): −6.6 | ABCC5 1932_at expression change (lot 2 Day 7 AI): −5 | AF052107 38262_at expression change (lot 2 Day 7 AI): −6.5 | AI264299 (84903_f_at) expression change (lot 2 Day 7 AI): −5.9 | AI432375 (49819_at) expression change (lot 2 Day 7 AI): −5 | AI669212 55436_at expression change (lot 2 Day 7 AI): −6.9 | AI740855 (83076_at) expression change (lot 2 Day 7 AI): −3.5 | AI761647 40191_s_at expression change (lot 2 Day 7 AI): −4
